Measurements published in patent US9006242B2, “Substituted benzene compounds” (Epizyme, Inc., priority 2012, dated 2015).
Where two headings read alike, the source gives them in different places.

What was measured:
[1] = tested on: cryopreserved human hepatocytes; test: Fraction of hepatocytes remaining (DAPI cell count) in CYP induction study; type: cell-based; conditions: 48 hours
Experimental: After completion of the incubation, the cells were washed with DPBS. After washing with DPBS, the cells were fixed using 3.7% p-formaldehyde in DPBS for one hour. The formaldehyde was removed and 0.6 μmol/L DAPI in DPBS was added. The cells were stained by DAPI for 20 minutes and then washed three times with DPBS. Cells were counted using an ArrayScan II (Cellomics, Pittsburgh, Pa.) with a 5× objective lens. Fraction of hepatocytes remaining was calculated using the number of cells found at a treatment condition divided by cells found with the vehicle control.

CYP3A4/5 [2] = test: Time-dependent inactivation (TDI) of CYP3A4/5 in human liver microsomes; type: in vitro ADME; conditions: for inactivation of CYP3A4/5 (in words): using midazolam as probe
CYP2C19 = CYP2C19 (Homo sapiens (Human), UniProt P33261); conditions: read-out: Reversible inhibition IC50 CYP2C19; human liver microsomes
CYP1A [3] = test: in vitro; conditions: human, pooled human liver microsomes, pH 7.4
CYP2C9 [4] = test: in vitro; conditions: human, pooled human liver microsomes, pH 7.4
CYP3A4/5 [5] = test: in vitro; conditions: human, pooled human liver microsomes
[6] = Metabolic stability in rat liver microsomes; conditions: pH 7.4
[7] = Metabolic stability in dog liver microsomes; conditions: pH 7.4
[8] = Metabolic stability in mouse liver microsomes; conditions: pH 7.4
[9] = Metabolic stability in human liver microsomes; conditions: for metabolic clearance in human liver microsomes (in words): HLM; for CLint scaled: human, human liver microsomes, pH 7.4
[10] = Metabolic stability in monkey liver microsomes; conditions: cynomolgus monkey, pH 7.4
CYP2C8 = CYP2C8 (Homo sapiens (Human), UniProt P10632); test: Reversible CYP inhibition in pooled human liver microsomes, CYP2C8; conditions: read-out: Reversible inhibition IC50 CYP2C8
CYP2D6 = CYP2D6 (Homo sapiens (Human), UniProt P10635); test: Reversible CYP inhibition in pooled human liver microsomes, CYP2D6; conditions: read-out: Reversible inhibition IC50 CYP2D6
[11] = tested on: human cytochromes P450 (CYP); test: Reversible CYP inhibition in human liver microsomes, overall assessment
CYP1A [12] = test: CYP induction in cryopreserved human hepatocytes (mRNA), CYP1A; type: in vitro ADME; conditions: positive control β-naphthoflavone
CYP2B6 = test: CYP induction in cryopreserved human hepatocytes (mRNA), CYP2B6; type: in vitro ADME; conditions: positive control phenobarbital
CYP2C9 [13] = test: CYP induction in cryopreserved human hepatocytes (mRNA), CYP2C9; type: in vitro ADME; conditions: positive control rifampicin
CYP3A = test: CYP induction in cryopreserved human hepatocytes (mRNA), CYP3A; type: in vitro ADME; conditions: positive control rifampicin
[14] = target: wild-type EZH2 (PRC2 complex) (Homo sapiens (Human), UniProt Q15910); test: Wild-type PRC2 enzyme assay (WT EZH2)
EZH2 (PRC2 complex) = EZH2 (PRC2 complex) (Homo sapiens (Human), UniProt Q15910); test: PRC2 enzyme assay on peptide substrate (EZH2 peptide v2)
Karpas-422 xenograft = test: Efficacy study in Karpas-422 xenograft model; type: in vivo, mice
[15] = type: in vivo; conditions: oral, BID, up to 28 days, Karpas-422 xenograft mice
[16] = pH 7.4, probe testosterone (250 μmol/L), CYP3A4/5, human liver microsomes, read-out: Time-Dependent Inactivation KI

Chain of CYP2C19 (P33261 whole entry): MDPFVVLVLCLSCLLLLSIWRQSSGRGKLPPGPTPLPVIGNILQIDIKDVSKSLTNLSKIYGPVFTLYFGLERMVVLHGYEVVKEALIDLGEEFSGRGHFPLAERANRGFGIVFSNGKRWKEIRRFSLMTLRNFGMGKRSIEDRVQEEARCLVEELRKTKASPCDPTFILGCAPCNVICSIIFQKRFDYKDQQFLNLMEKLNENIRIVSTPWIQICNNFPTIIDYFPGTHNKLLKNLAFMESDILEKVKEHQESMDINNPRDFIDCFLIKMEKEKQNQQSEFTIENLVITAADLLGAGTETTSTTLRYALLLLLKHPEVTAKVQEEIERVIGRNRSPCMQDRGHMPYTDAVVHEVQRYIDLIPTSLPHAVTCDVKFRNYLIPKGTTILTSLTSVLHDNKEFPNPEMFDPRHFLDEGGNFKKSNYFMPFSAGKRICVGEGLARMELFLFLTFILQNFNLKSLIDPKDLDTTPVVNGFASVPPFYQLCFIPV
Chain of CYP2D6 (P10635 whole entry): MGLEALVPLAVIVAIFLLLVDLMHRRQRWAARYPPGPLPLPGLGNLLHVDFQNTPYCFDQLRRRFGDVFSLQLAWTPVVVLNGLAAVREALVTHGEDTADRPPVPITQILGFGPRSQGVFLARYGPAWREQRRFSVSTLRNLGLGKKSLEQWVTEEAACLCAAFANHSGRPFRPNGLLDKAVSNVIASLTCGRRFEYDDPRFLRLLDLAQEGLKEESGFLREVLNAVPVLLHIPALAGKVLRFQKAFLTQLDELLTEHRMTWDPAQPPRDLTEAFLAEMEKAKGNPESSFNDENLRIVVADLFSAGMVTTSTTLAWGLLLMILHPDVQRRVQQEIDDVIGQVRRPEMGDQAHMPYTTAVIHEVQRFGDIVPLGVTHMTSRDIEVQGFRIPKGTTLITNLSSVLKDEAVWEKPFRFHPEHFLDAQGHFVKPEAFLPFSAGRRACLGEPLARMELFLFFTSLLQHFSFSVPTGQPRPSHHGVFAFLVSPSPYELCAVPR
Chain of CYP2C8 (P10632 whole entry): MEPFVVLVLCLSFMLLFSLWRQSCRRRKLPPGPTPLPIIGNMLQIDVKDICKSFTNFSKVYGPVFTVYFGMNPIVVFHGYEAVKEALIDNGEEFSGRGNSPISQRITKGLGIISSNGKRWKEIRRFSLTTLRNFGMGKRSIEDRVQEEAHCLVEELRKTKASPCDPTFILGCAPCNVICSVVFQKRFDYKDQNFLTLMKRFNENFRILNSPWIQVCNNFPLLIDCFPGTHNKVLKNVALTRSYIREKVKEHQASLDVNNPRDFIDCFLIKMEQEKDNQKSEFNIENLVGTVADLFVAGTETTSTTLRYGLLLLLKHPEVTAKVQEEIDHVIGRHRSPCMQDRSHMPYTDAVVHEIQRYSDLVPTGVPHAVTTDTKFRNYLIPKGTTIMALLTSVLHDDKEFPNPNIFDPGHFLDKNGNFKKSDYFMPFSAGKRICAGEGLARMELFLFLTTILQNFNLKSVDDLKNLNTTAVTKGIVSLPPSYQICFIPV
Chain of EZH2 (PRC2 complex) (Q15910 other isoform, or with tags, fused parts or gaps): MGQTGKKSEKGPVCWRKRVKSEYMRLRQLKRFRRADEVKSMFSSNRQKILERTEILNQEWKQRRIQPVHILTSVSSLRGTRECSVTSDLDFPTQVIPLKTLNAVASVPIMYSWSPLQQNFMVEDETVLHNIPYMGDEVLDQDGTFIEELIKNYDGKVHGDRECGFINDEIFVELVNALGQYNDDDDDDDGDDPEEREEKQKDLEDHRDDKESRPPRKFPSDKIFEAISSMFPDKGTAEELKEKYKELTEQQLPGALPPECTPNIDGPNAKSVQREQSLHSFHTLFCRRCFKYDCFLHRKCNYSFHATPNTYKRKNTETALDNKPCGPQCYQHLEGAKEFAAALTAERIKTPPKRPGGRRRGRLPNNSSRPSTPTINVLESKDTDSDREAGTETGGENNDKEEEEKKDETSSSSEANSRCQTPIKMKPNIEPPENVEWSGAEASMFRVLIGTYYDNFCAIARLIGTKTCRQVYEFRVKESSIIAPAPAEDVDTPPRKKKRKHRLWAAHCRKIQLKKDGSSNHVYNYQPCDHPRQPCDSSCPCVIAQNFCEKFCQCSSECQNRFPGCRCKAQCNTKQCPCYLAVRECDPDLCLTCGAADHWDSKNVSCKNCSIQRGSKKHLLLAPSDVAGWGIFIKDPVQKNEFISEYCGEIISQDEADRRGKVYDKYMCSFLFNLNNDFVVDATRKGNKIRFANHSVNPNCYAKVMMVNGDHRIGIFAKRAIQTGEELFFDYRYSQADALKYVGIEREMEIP
Chain of EZH2 (PRC2 complex) (O75530 whole entry partner): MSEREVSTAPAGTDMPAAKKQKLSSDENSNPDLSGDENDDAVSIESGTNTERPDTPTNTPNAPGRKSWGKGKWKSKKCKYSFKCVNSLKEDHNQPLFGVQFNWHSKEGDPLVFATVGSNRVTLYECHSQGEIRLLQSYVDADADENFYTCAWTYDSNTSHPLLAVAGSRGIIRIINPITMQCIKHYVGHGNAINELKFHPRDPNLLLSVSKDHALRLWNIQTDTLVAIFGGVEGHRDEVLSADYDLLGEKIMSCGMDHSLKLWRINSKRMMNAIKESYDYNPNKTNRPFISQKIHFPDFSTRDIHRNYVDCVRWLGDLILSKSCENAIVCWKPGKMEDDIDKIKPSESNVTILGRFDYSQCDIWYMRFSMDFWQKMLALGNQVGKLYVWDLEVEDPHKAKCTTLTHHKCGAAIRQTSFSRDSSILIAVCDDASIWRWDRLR
Chain of EZH2 (PRC2 complex) (Q15022 whole entry partner): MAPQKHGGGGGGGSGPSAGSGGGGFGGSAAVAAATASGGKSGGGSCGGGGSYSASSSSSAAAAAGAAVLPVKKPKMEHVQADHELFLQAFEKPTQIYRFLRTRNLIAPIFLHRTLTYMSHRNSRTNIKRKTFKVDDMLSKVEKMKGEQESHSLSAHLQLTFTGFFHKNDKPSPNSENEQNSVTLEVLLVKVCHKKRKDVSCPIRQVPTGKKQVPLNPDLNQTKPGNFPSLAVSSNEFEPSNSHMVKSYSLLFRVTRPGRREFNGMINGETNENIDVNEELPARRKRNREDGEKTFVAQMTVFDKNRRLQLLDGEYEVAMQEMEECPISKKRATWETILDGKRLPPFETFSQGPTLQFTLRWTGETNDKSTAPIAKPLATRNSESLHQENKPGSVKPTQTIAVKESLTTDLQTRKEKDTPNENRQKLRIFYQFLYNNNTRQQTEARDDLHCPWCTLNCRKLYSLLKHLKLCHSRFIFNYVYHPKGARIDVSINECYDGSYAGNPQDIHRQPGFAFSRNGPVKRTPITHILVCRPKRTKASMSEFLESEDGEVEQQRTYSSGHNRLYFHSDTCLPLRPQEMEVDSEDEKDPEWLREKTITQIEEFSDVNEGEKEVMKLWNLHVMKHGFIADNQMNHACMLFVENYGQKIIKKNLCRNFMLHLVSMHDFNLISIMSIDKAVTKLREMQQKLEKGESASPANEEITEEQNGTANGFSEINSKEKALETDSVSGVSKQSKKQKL
Chain of EZH2 (PRC2 complex) (Q09028 whole entry partner): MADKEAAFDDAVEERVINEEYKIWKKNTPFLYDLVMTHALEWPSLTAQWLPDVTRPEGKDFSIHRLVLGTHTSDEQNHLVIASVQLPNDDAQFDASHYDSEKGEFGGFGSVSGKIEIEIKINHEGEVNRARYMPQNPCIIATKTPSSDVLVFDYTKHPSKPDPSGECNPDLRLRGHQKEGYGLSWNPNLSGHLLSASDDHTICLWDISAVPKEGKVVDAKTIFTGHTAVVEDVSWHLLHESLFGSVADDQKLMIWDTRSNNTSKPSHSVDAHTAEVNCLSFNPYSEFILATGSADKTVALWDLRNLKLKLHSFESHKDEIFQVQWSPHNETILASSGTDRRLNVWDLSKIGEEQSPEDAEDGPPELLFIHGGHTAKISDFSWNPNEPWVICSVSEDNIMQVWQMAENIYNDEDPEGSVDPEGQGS
Chain of wild-type EZH2 (PRC2 complex) (Q15910 other isoform, or with tags, fused parts or gaps): as the sequence (Q15910 other isoform, or with tags, fused parts or gaps) above
Chain of wild-type EZH2 (PRC2 complex) (O75530 whole entry partner): as the sequence (O75530 whole entry partner) above
Chain of wild-type EZH2 (PRC2 complex) (Q15022 whole entry partner): as the sequence (Q15022 whole entry partner) above
Chain of wild-type EZH2 (PRC2 complex) (Q09028 whole entry partner): as the sequence (Q09028 whole entry partner) above

Structure (SMILES)	% Cell Remaining vs. Control ([1]; 1 μM) [%]	% Cell Remaining vs. Control ([1]; 10 μM) [%]	KI (inactivation) (CYP3A4/5 [2]; [16]) [µM]	inactivation of CYP3A4/5 (in words) (CYP3A4/5 [2])	IC50 (CYP2C19) [µM]	IC50 (CYP1A [3]) [µM]	IC50 (CYP2C9 [4]) [µM]	IC50 (CYP3A4/5 [5]; pH 7.4, probe midazolam) [µM]	IC50 (CYP3A4/5 [5]; pH 7.4, probe testosterone) [µM]	CLint scaled [6] [mL/min/kg]	CLint scaled [7] [mL/min/kg]	CLint scaled [8] [mL/min/kg]	metabolic clearance in human liver microsomes (in words) [9]	CLint scaled [9] [mL/min/kg]	CLint scaled [10] [mL/min/kg]	IC50 (CYP2C8) [µM]	IC50 (CYP2D6) [µM]	reversible CYP inhibition (in words) [11]	CYP1A % Positive Control (CYP1A [12]; 1 μM) [%]	CYP1A % Positive Control (CYP1A [12]; 10 μM) [%]	also measured
CCN(c1cc(C#CCN2CCOCC2)cc(C(=O)NCc2c(C)cc(C)[nH]c2=O)c1C)[C@H]1CC[C@H](N(C)CCOC)CC1 [Compound 2, N-((4,6-dimethyl-2-oxo-1,2-dihydropyridin-3-yl)methyl)-3-(ethyl((trans)-4-((2-methoxyethyl)(methyl)amino)cyclohexyl)amino)-2-methyl-5-(3-morpholinoprop-1-yn-1-yl)benzamide]	124.70	120.90	22.3	time-, concentration-, and NADPH-dependent inactivation of CYP3A4/5	> 100	> 100	> 100	> 100	> 100	14.8	34.3	17.6	low metabolic clearance	8.8	32.8	> 100	> 100	no significant reversible inhibition			
CCN(c1cc(C#CC2CCN(C)CC2)cc(C(=O)NCc2c(C)cc(C)[nH]c2=O)c1C)C1CCOCC1 [Compound 105, N-((4,6-Dimethyl-2-oxo-1,2-dihydropyridin-3-yl)methyl)-3-(ethyl(tetrahydro-2H-pyran-4-yl)amino)-2-methyl-5-((1-methylpiperidin-4-yl)ethynyl)benzamide]	103.19	97.49	10.2	time-, concentration-, and NADPH-dependent inactivation of CYP3A4/5	33.6	> 100	75.7	9.67	> 100	47.5	64.2	54.7	low metabolic clearance	42.1	74.8		2.95	potentially significant inhibition of CYP2D6 and CYP3A4 (midazolam)	3.0	4.4	CYP2B6 % Positive Control (CYP2B6; 1 μM): 25.5%; CYP2B6 % Positive Control (CYP2B6; 10 μM): 52.2%; CYP2C9 % Positive Control (CYP2C9 [13]; 1 μM): 50.4%; CYP2C9 % Positive Control (CYP2C9 [13]; 10 μM): 76.3%; CYP3A % Positive Control (CYP3A; 1 μM): 18.1%; CYP3A % Positive Control (CYP3A; 10 μM): 33.8%; IC50 [14]: < 0.01 µM; IC50 (EZH2 (PRC2 complex)): 0.0084 µM
CCN(c1cc(-c2ccc(OCCOC)cc2)cc(C(=O)NCc2c(C)cc(C)[nH]c2=O)c1C)[C@H]1CC[C@H](N(C)C)CC1 [Compound 1, N-((4,6-dimethyl-2-oxo-1,2-dihydropyridin-3-yl)methyl)-5-(((trans)-4-(dimethylamino)-cyclohexyl)(ethyl)-amino)-4′-(2-methoxyethoxy)-4-methyl-[1,1′-biphenyl]-3-carboxamide]	107.44	99.00	6.4	time-, concentration-, and NADPH-dependent inactivation of CYP3A4/5	89.6	> 100	> 100	40.5	> 100	14.8	8.1	15.4	low metabolic clearance	10.5	58.6	> 100		no significant reversible inhibition	2.8	3.0	CYP2B6 % Positive Control (CYP2B6; 1 μM): 18.0%; CYP2B6 % Positive Control (CYP2B6; 10 μM): 26.3%; CYP2C9 % Positive Control (CYP2C9 [13]; 1 μM): 43.5%; CYP2C9 % Positive Control (CYP2C9 [13]; 10 μM): 52.6%; CYP3A % Positive Control (CYP3A; 1 μM): 13.9%; CYP3A % Positive Control (CYP3A; 10 μM): 13.3%; KI (inactivation) (CYP3A4/5 [2]; human, human liver microsomes, pH 7.4, CYP3A4/5, footnote to ** not given, read-out: Time-Dependent Inactivation KI, second value in brackets marked **): 3.3 µM; tumors large enough for analysis at day 28 (Karpas-422 xenograft; 125 mg/kg BID x28, p.o.): 5 out of 10; tumors large enough for analysis at day 28 (Karpas-422 xenograft; 250 mg/kg BID x28, p.o.): 1 out of 10; tumors large enough for analysis at day 28 (Karpas-422 xenograft; 500 mg/kg BID x28, p.o.): too small for analysis; anti-tumor effect in Karpas-422 xenograft model (in words) (Karpas-422 xenograft; oral, BID, up to 28 days, 62.5-500 mg/kg): tumor stasis and regression; tolerability (in words) [15]: well tolerated
